Like-named read-outs stand apart in the source and are kept apart here. Marks after values point to notes of the source that are not given here.
Test system: MCF-7 breast cancer cells transfected with the human aromatase gene
Settings: for Mean % Inhibition of Tumor Size vs Vehicle at Day 42 / Mean Tumor Size at Day 98 / Mice cured / Mice dead / Mice with Escape to 500 mm^3 / Percent of mice with cures: letrazole only
Method: The relative effects of the aromatase inhibitor agent letrozole and a test compound of the present invention were evaluated, when administered alone or in combination, on the in vivo growth of MCF-7 breast cancer cells transfected with the human aromatase gene.
In this study, cells (7.0×10^6 cells/mouse) were implanted subcutaneously in female ovariectomized athymic nude mice (n=10). Androstenedione was administered (via slow-release pellets) as a source of […].
The daily dose was administered in a target volume of 0.1 mL, which was adjusted according to subject weight. The oral vehicle was L21 (a mixture of 35% Labrasol, 35% Labrafac, and 30% Solutol). Individual vehicle-treated mice were removed from study when the tumor reached 1500 mm^3. After 100 days of treatment, treatment was stopped.

[1] = 10 μg/mouse orally once per day
[2] = 30 μg/mouse orally once per day

## N#Cc1ccc(C(c2ccc(C#N)cc2)n2cncn2)cc1 [letrozole]
[1]
  Mean % Inhibition of Tumor Size vs Vehicle at Day 42: 72%
  Mean Tumor Size at Day 98: 225 mm^3
  Mice cured: 0 of 9
  Mice dead: 1
  Mice with Escape to 500 mm^3: 2
  Percent of mice with cures: 0% cured
[2]
  Mean % Inhibition of Tumor Size vs Vehicle at Day 42: 91%**
  Mean Tumor Size at Day 98: 146 mm^3
  Mice cured: 2 of 9
  Mice dead: 1
  Mice with Escape to 500 mm^3: 0
  Percent of mice with cures: 22% cured
Letrozole (10 μg/mouse) alone
  Effect on tumor growth: the tumors did not regress, tumor growth was prevented
Letrozole (30 μg/mouse) alone
  Effect on tumor growth: the tumors regressed
  Mice with cures (no measurable tumor) at Day 100: two of the nine

— US20100158858A1, “ADMINISTRATION OF CARBOLINE DERIVATIVES USEFUL IN THE TREATMENT OF CANCER AND OTHER DISEASES” (priority 2007, published 2010)
